The test system of experiment [1] is HCT-8 cells. Description: Dye uptake flow cytometry MDR assay. Type of experiment: cell-based, human. On the set-up: key: Kolmogorov-Smirnov D statistic comparing fluorescence distributions. To be noted: HCT-8, dye uptake. The procedure: (§1) Cells were grown on tissue culture dishes and on the day of assay were trypsinized and washed twice with warm (37° C.) phosphate-buffered saline (PBS). Post-wash, the cells were re-suspended in warm phenol red indicator-free medium at a density of 1×10^6/ml. For each detection set, sixteen tubes (5 samples in triplicates plus non-stained control for background fluorescence) in numbered tubes each containing 5×10^5/cells (0.5 ml) were prepared. […] After incubation for 5 min at 37° C., 0.25 ml of warm medium with Fluo-8™ AM probe (5 μM final concentration) or Rhod-4™ AM probe (2 μM final concentration) was added to each tube excluding non-stained control that receives plain medium and cells were incubated for 30 min at 37° C. and analyzed immediately by flow cytometry. In the second set of the tubes, the reaction was stopped by rapid centrifugation (1 min) at relatively low speed (200×g). After wash with ice-cold PBS and discarding the supernatant, cells were re-suspended in 0.5 ml of ice-cold medium and kept on ice until flow cytometry analysis. The third set of cells simply was spun down (1 min, 200×g) to remove the excess of the probe, resuspended in ice-cold medium and kept on ice until flow cytometry analysis.
(§2) Flow cytometry experiments were performed using a FACS Calibur benchtop flow cytometer (BD Biosciences) equipped with a blue (488 nm) laser, and the signals were registered in the FITC (530/30 filter), PE (585/42 filter) and PerCP (670 LP filter) channels. Fluo-8™ dye fluorescence was measured in the FL1 channel, and Rhod-4™ dye fluorescence—in the FL2 channel. Flow cytometry data were analyzed by comparison of median fluorescence or using Kolmogorov-Smirnov statistics [Young, J Histochem Cytochem 25:935-941 (1977)] or by calculating MAF values (MDR Activity Factor) using the following formula: MAF=100*((MFIinh−MFI0)/MFIinh), where MFIinh and MFI0 are mean fluorescence intensity values measured in the presence and absence of inhibitor [Hollo et al., Biochem Piophys Acta. 1191:384-388 (1994)].
(§3) Both human ileocecal colorectal carcinoma cell line HCT-8 (reported to over-express P-gp and, to a lesser extent, MRP [Hunter et al., Br J Cancer. 64:437-444 (1991); Collington et al., Biochem Pharmacol 44:417-424 (1992)] and hepatocellular carcinoma Hep G2 (reported to over-express MRP [Roelofsen et al., Gastroenterology 112:511-521 (1997), Cantz et al., Am J Physiol Gastrointest Liver Physiol. 278:G522-G531 (2000)] were obtained from ATCC. HCT-8 cells were routinely cultured in RPMI-1640 Medium with 2 mM L-glutamine, 10 mM HEPES, 1 mM sodium piruvate, 4.5 g/L glucose, 1.5 g/L sodium bicarbonate (ATCC), supplemented with 10% horse serum (ATCC) and 100 U/ml penicillin, 100 ug/ml streptomycin (Sigma-Aldrich, St. Louis, Mo.). Hep G2 cells were routinely cultured in Eagle's Minimum Essential Medium with low glucose (ATCC), supplemented with 10% heat inactivated fetal bovine serum (ATCC) and 100 U/ml penicillin, 100 ug/ml streptomycin (Sigma-Aldrich, St. Louis, Mo.). Cell cultures were maintained in a humidified incubator at 37° C., with 5% CO2 atmosphere. Stock solutions of the probes and inhibitors were prepared, as described in Examples 2 and 3. Cells were grown in tissue culture dishes and on the day of assay were treated according to a dye uptake protocol and analyzed by flow cytometry, as described in Example 3.
(In general: A flow cytometer gives signals particle by particle.)

In experiment [2] the test system is Hep G2 cells. Description: Dye uptake flow cytometry MDR assay. The settings on record: HepG2, dye uptake. Type of experiment: cell-based, human. On the set-up: key: Kolmogorov-Smirnov D statistic comparing fluorescence distributions. As for the experimental part: as §1, §2, §3
Experiment [3] concerns CHO K1 cell line. Description: Dye efflux flow cytometry MDR assay. Type of experiment: cell-based, hamster. To be noted: for D-value, +4° C.: kept on ice without inhibitor. On the set-up: key to D-value, Verapamil / D-value, Novobiocin: KS D value, 0 to 1; negative if control brighter than sample. From the text:
Kolmogorov-Smirnov statistics measures the difference between two distribution functions and generates a D value ranging between 0 and 1.0, with higher values indicating a greater difference between the distribution functions. The D value generated by the KS statistics was modified by ascribing a negative value if the fluorescence of a negative control (no inhibitor) was brighter than the fluorescence of the sample with inhibitor. The method was one of those recommended by the First International MDR1 Methods Detection Workshop (St. Jude Children's Research Hospital, Memphis, Tenn.).
Cells were grown in tissue culture dishes and on the day of assay they were trypsinized and washed twice with ice-cold PBS. Post-wash, the cells were re-suspended in cold phenol red indicator-free medium at a density of 1×10^6/ml. For each detection set, eighteen tubes (6 tubes without inhibitor and 3 tubes for each inhibitor tested, in triplicates) each containing 2.5-5×10^5/cells were prepared. Cells were centrifuged at 200×g for 5 min, and after discarding supernatant, re-suspended at 1×10^6/ml in ice-cold indicator-free medium containing Fluo-8™ AM or Rhod-4™ AM probes. Additionally, an aliquot of non-stained cells was prepared for background fluorescence measurements. Cells were incubated with the probe(s) on ice for 60 min, than centrifuged at 200×g for 5 min. After discarding the supernatant, cells were either washed twice with PBS or simply were spun down to remove the excess of the probe and resuspended at 5×10^5 cells/sample in 0.5 ml of following solutions:
1. warm (37° C.) indicator-free medium containing vehicle only (3 tubes)
2. warm (37° C.) indicator-free medium containing inhibitor (3 tubes for each inhibitor tested)
3. ice-cold indicator-free medium (3 tubes)
Tube sets 1 and 2 were immediately transferred to a water bath (37° C.) and incubated for 90 min. Tube set 3 was kept on ice. Post incubation, 4 ml of ice-cold indicator-free medium was added per tube, tubes were centrifuged at 200×g for 5 min, supernatant was discarded, and cell pellet was re-suspended in the cold indicator-free medium and centrifuged again. Finally, cells were re-suspended in 0.5 ml of cold indicator-free medium and maintained on ice until analysis. Alternatively, cells were analyzed without washing. Flow cytometry experiments were performed as described in Example 3.

[4] abbreviates: CHO K1, dye efflux, representative experiment (Table 9).
Where [5] appears, read: Fluo-8 AM probe, dye efflux, CHO K1, No Wash.
[6] abbreviates: Fluo-8 AM probe, dye efflux, CHO K1, Wash.

Consider `CC(=O)OCOC(=O)CN(CC(=O)OCOC(C)=O)c1ccccc1OCCOc1cc(-c2c3ccc(=O)cc-3oc3cc(OCOC(C)=O)ccc23)ccc1N(CC(=O)OCOC(C)=O)CC(=O)OCOC(C)=O` [Fluo-8 ™ AM], for which, in experiment [1], the “D-value, CyclosporinA” value is on record as 0.68; the “D-value, MK-571” value is reported as 0.34; the “D-value, Novobiocin” value is given as 0.22; the “D-value, Verapamil” value is listed as 0.71. Also, in experiment [2], the “D-value, CyclosporinA” value came to 0.28; the “D-value, MK-571” value came to 0.34; the “D-value, Novobiocin” value came out at 0.13; the “D-value, Verapamil” value is recorded as 0. Further, in experiment [3] (CHO K1, dye efflux, kept on ice without inhibitor (Table 9)), the “D-value, 4° C.” value was 0.72. Besides, in experiment [3] (setting [4]), the “D-value, Cyclosporine A” value amounted to 0.55; the “D-value, Novobiocin” value was found to be 0.70; the “D-value, Probenecid” value was found to be 0.30; the “D-value, Verapamil” value came to 0.28. In experiment [3] (setting [5]), the “D-value, Cyclosporin A” value was determined as 0.8; the “D-value, Novobiocin” value is 0.7; the “D-value, Probenecid” value came out at 0.19; the “D-value, Verapamil” value is recorded as 0.21. In addition, the “D-value, +4° C.” value in experiment [3] (setting [5]) turned out to be 0.78. Further, in experiment [3] (setting [6]), the “D-value, Cyclosporin A” value is on record as 0.62; the “D-value, Novobiocin” value is on record as 0.79; the “D-value, Probenecid” value is recorded as 0.23; the “D-value, Verapamil” value amounted to 0.34. Also, the “D-value, +4° C.” value in experiment [3] (setting [6]) is 0.76.

Values taken from US9097673B2, “Processes and kits for determining multi-drug resistance of cells” (ENZO LIFE SCIENCES, INC., priority 2010, dated 2015).
